Measured values taken from patent US10105357B2, “Indication of antibiotic drugs for preparation of cancer inhibition pharmaceutical composition” (LAUNX BIOMEDICAL CO., LTD., priority 2014, dated 2018).
Structures can show the parent of a compound that is named as a salt. Where two headings read alike, the source gives them in different places.

Tests used:
[1] = tested on: AGS (Gastric Adenocarcinoma); test: Cell viability analysis, gastric cancer AGS; format: cell-based, human; settings: Homo sapiens, 72 h
[2] = tested on: LoVo (Colorectal Adenocarcinoma); test: Cell viability analysis, colon cancer LoVo; format: cell-based, human; settings: Homo sapiens, LoVo, 72 h
cancer cell lines = test: Cell viability analysis (WST-1) on cancer cell lines; format: cell-based, human; settings: drug 10 μM, 72 hours, WST-1; Table 3
[3] = tested on: TSGH-8301 (Urinary Bladder Carcinoma); test: Cell viability analysis, bladder cancer TSGH-8301; format: cell-based, human; settings: Homo sapiens, 72 h
U-2OS = test: Cell viability analysis, osteosarcoma U-2OS; format: cell-based, human; settings: Homo sapiens, U2OS, 72 h, read-out: The results of antibiotic drug inhibiting cancer cell lines (cell viability analysis), U2OS
[4] = tested on: A549 (Lung Adenocarcinoma); test: Cell viability analysis, lung cancer A549; format: cell-based, human; settings: Homo sapiens, A549, 72 h
[5] = tested on: HCT116 (p53+) (Colorectal Carcinoma)
[6] = tested on: 786-O (Renal adenocarcinoma); test: Cell viability analysis, renal cancer 786-O; format: cell-based, human; settings: Homo sapiens, 786-0, 72 h, read-out: The results of antibiotic drug inhibiting cancer cell lines (cell viability analysis), 786-O
[7] = tested on: HI650 (Lung Adenocarcinoma); test: Cell viability analysis, lung cancer HI650; format: cell-based, human; settings: Homo sapiens, NCI-H1650, 72 h
[8] = tested on: HL-60 (Acute Promyelocytic Leukemia); test: Cell viability analysis, leukemia HL-60; format: cell-based, human; settings: Homo sapiens, HL-60, 72 h, read-out: cell viability (survival rate), HL-60, drug 10 μM, 72 hours, WST-1, OD450 nm
[9] = tested on: C-33A (Cervical carcinoma); test: Cell viability analysis, cervical cancer C-33A; format: cell-based, human; settings: Homo sapiens, C-33-A, 72 h, read-out: The results of antibiotic drug inhibiting cancer cell lines (cell viability analysis), C-33A
NIH: OVCAR-3 = test: Cell viability analysis, ovarian cancer NIH: OVCAR-3; format: cell-based, human; settings: Homo sapiens, OVCAR-3, 72 h, read-out: The results of antibiotic drug inhibiting cancer cell lines (cell viability analysis), NIH-OVCAR-3
[10] = tested on: MCF7 (Mammary Gland, Adenocarcinoma); test: Cell viability analysis, breast cancer MCF7; format: cell-based, human; settings: Homo sapiens, MCF7, 72 h
[11] = tested on: Hep3B (hepatocellular carcinoma); test: Cell viability analysis, hepatic cancer Hep3B; format: cell-based, human; settings: Homo sapiens, Hep3B, 72 h, read-out: The results of antibiotic drug inhibiting cancer cell lines (cell viability analysis), Hep3B
[12] = tested on: BCC (basal cell carcinoma); test: Cell viability analysis, skin cancer BCC; format: cell-based, human; settings: Homo sapiens, 72 h, read-out: The results of antibiotic drug inhibiting cancer cell lines (cell viability analysis), BCC
T24 = test: Cell viability analysis, bladder cancer T24; format: cell-based, human; settings: Homo sapiens, T-24, 72 h, read-out: The results of antibiotic drug inhibiting cancer cell lines (cell viability analysis), T24
[13] = tested on: SAS (Tongue squamous cell carcinoma); test: Cell viability analysis, tongue cancer SAS; format: cell-based, human; settings: Homo sapiens, 72 h, read-out: The results of antibiotic drug inhibiting cancer cell lines (cell viability analysis), SAS
[14] = tested on: HeLa (Cervix Adenocarcinoma); test: Cell viability analysis, cervical cancer HeLa; format: cell-based, human; settings: Homo sapiens, HeLa, 72 h
TOV-21G = test: Cell viability analysis, ovarian cancer TOV-21G; format: cell-based, human; settings: Homo sapiens, TOV21G, 72 h, read-out: The results of antibiotic drug inhibiting cancer cell lines (cell viability analysis), TOV-21G
[15] = tested on: MKN-45 (Gastric Adenocarcinoma); test: Cell viability analysis, gastric cancer MKN-45; format: cell-based, human; settings: Homo sapiens, MKN-45, 72 h
AsPC-1 = test: Cell viability analysis, pancreatic cancer AsPC-1; format: cell-based, human; settings: Homo sapiens, ASPC1, 72 h, read-out: The results of antibiotic drug inhibiting cancer cell lines (cell viability analysis), AsPC-1
[16] = tested on: HepG2 (Hepatocellular Carcinoma); test: Cell viability analysis, hepatic cancer HepG2; format: cell-based, human; settings: Homo sapiens, HepG2, 72 h
[17] = tested on: A375 (Amelanotic Melanoma); test: Cell viability analysis, skin cancer A375; format: cell-based, human; settings: Homo sapiens, A-375, 72 h
[18] = tested on: MDA-MB-231 (Mammary Gland, Adenocarcinoma); test: Cell viability analysis, breast cancer MDA-MB-231; format: cell-based, human; settings: Homo sapiens, MDA-MB-231, 72 h, read-out: The results of antibiotic drug inhibiting cancer cell lines (cell viability analysis), MDA-MB231
[19] = read-out: The results of antibiotic drug inhibiting cancer cell lines (cell viability analysis), AGS, repeated experiment
[20] = read-out: cell viability (survival rate), AGS, drug 10 μM, 72 hours, WST-1, OD450 nm
[21] = read-out: The results of antibiotic drug inhibiting cancer cell lines (cell viability analysis), LoVo, repeated experiment
[22] = read-out: cell viability (survival rate), LoVo, drug 10 μM, 72 hours, WST-1, OD450 nm
[23] = read-out: The results of antibiotic drug inhibiting cancer cell lines (cell viability analysis), TSGH-8301, TSGH-8301, repeated experiment
[24] = read-out: cell viability (survival rate), TSGH, drug 10 μM, 72 hours, WST-1, OD450 nm
[25] = read-out: The results of antibiotic drug inhibiting cancer cell lines (cell viability analysis), A549, A549, repeated experiment
[26] = read-out: cell viability (survival rate), A549, drug 10 μM, 72 hours, WST-1, OD450 nm
[27] = read-out: The results of antibiotic drug inhibiting cancer cell lines (cell viability analysis), H1650, H1650, repeated experiment
[28] = read-out: cell viability (survival rate), H1650, drug 10 μM, 72 hours, WST-1, OD450 nm
[29] = read-out: The results of antibiotic drug inhibiting cancer cell lines (cell viability analysis), MCF-7, MCF-7, repeated experiment
[30] = read-out: cell viability (survival rate), MCF7, drug 10 μM, 72 hours, WST-1, OD450 nm
[31] = read-out: The results of antibiotic drug inhibiting cancer cell lines (cell viability analysis), HeLa, repeated experiment
[32] = read-out: cell viability (survival rate), HeLa, drug 10 μM, 72 hours, WST-1, OD450 nm
[33] = read-out: The results of antibiotic drug inhibiting cancer cell lines (cell viability analysis), MKN-45, MKN-45, repeated experiment
[34] = read-out: cell viability (survival rate), MKN-45, drug 10 μM, 72 hours, WST-1, OD450 nm
[35] = read-out: The results of antibiotic drug inhibiting cancer cell lines (cell viability analysis), HepG2, HepG2, repeated experiment
[36] = read-out: cell viability (survival rate), HepG2, drug 10 μM, 72 hours, WST-1, OD450 nm
[37] = read-out: The results of antibiotic drug inhibiting cancer cell lines (cell viability analysis), A375, A375, repeated experiment
[38] = read-out: cell viability (survival rate), A375, drug 10 μM, 72 hours, WST-1, OD450 nm

`CN(C)[C@@H]1C(O)=C(C(N)=O)C(=O)[C@@]2(O)C(O)=C3C(=O)c4c(O)ccc(Cl)c4[C@@](C)(O)[C@H]3C[C@@H]12` [Chlortetracycline HCl] showed a viability at 10 µM [1, 19] of 99.9%, a viability at 10 µM [1, 20] of 69.7% and a viability at 10 µM [2, 21] of 74.4%. For the same molecule, the viability at 10 µM [2, 22] was 61.4%, the “inhibition effect on different cancer cell lines” value (cancer cell lines) was “significant inhibition effect” and the viability at 10 µM [3, 23] was 152%. For the same molecule, the viability at 10 µM [3, 24] was 50.4%, the viability at 10 µM (U-2OS) was 80.3% and the viability at 10 µM [4, 25] was 99.3%. For the same molecule, the viability at 10 µM [4, 26] was 45.8%, the viability [5] was 91.5% and the viability at 10 µM [6] was 91.4%. For the same molecule, the viability at 10 µM [7, 27] was 88.5%, the viability at 10 µM [7, 28] was 59.9% and the viability at 10 µM [8] was 83.9%. For the same molecule, the viability at 10 µM [9] was 88%, the viability at 10 µM (NIH: OVCAR-3) was 99.3% and the viability at 10 µM [10, 29] was 93.4%. The viability at 10 µM [10, 30] was 32.2%, the viability at 10 µM [11] was 117% and the viability at 10 µM [12] was 97.1%. For the same molecule, the viability at 10 µM (T24) was 122%, the viability at 10 µM [13] was 97.4% and the viability at 10 µM [14, 31] was 84%. The viability at 10 µM [14, 32] was 83.9%, the viability at 10 µM (TOV-21G) was 92.2% and the viability at 10 µM [15, 33] was 142%. For the same molecule, the viability at 10 µM [15, 34] was 43%, the viability at 10 µM (AsPC-1) was 82.1% and the viability at 10 µM [16, 35] was 113%. The viability at 10 µM [16, 36] was 75%, the viability at 10 µM [17, 37] was 108% and the viability at 10 µM [17, 38] was 49.2%. The viability at 10 µM [18] was 83.2%.
In the case of `COc1cc(NC(C)CCCN)c2ncccc2c1` (centres unmarked) [Primaquine Diphosphate], the viability at 10 µM [1, 19] is reported as 37.1%, the viability at 10 µM [1, 20] is reported as 43.9% and the viability at 10 µM [2, 21] is reported as 81.2%. For the same molecule, the viability at 10 µM [2, 22] was 72.6%, the “inhibition effect on different cancer cell lines” value (cancer cell lines) was “significant inhibition effect” and the viability at 10 µM [3, 23] was 51.5%. The viability at 10 µM [3, 24] was 55.5%, the viability at 10 µM (U-2OS) was 59.6% and the viability at 10 µM [4, 25] was 47.4%. For the same molecule, the viability at 10 µM [4, 26] was 31.4%, the viability [5] was 60.9% and the viability at 10 µM [6] was 81.5%. The viability at 10 µM [7, 27] was 66.8%, the viability at 10 µM [7, 28] was 56.4% and the viability at 10 µM [8] was 34.1%. It also gave a viability at 10 µM [9] of 96.8%, a viability at 10 µM (NIH: OVCAR-3) of 60.2% and a viability at 10 µM [10, 29] of 50.7%. It also gave a viability at 10 µM [10, 30] of 36.7%, a viability at 10 µM [11] of 115% and a viability at 10 µM [12] of 35.9%. It also gave a viability at 10 µM (T24) of 72.6%, a viability at 10 µM [13] of 59.9% and a viability at 10 µM [14, 31] of 61.2%. The viability at 10 µM [14, 32] was 55%, the viability at 10 µM (TOV-21G) was 54.8% and the viability at 10 µM [15, 33] was 63.1%. The viability at 10 µM [15, 34] was 64.3%, the viability at 10 µM (AsPC-1) was 66.5% and the viability at 10 µM [16, 35] was 81%. The viability at 10 µM [16, 36] was 81.4%, the viability at 10 µM [17, 37] was 38.7% and the viability at 10 µM [17, 38] was 44.6%. It also gave a viability at 10 µM [18] of 65.4%.
